Measurements: US9258995B2, “Organ cold storage composition and methods of use” (BOARD OF TRUSTEES OF THE UNIVERSITY OF ARKANSAS, priority 2009, dated 2016)

Assays:
NRK cells [1] = experiment: MitoSOX Red mitochondrial superoxide generation, cold storage in vitro model; assay type: cell-based, rat; conditions: 4 h CS at 4° C. in UW, 1 μM
Experimental: Normal rat kidney proximal tubular cells (NRK-52E; American Type Culture Collection, Manassas, Va.) were maintained in six-well 100 or 150-mm, or 150-mm plates in a humidified incubator gassed with 5% CO2 and 95% air at 37° C. in DMEM (Invitrogen, Carlsbad, Calif.) containing 5% fetal calf serum (FCS). Cells were grown to 60% confluence and divided into four treatment groups: 1) untreated (Untx), 2) CS, 3) CS+MitoQ, and 4) CS+DecylTPP. Untreated cells remained at 37° C. in DMEM containing 5% FCS (group 1). […]
MitoSOX Red (Invitrogen) was used to measure mitochondrial superoxide generation during CS. […] Fluorescence was visualized using an Eclipse E800 microscope (Nikon, Melville, N.Y.) with a rhodamine filter using a water immersion objective (60×). Fluorescent images of NRK cells were captured with equal exposure times and quantified by averaging the mean intensity fluorescence of five random cells in three different fields using Nikon N is Elements software. In separate experiments, cells were grown on coverslips, preloaded with MitoSOX Red before treatment (groups 1-4), and evaluated for mitochondrial superoxide generation using a Hitachi F-2500 spectrofluorometer (Hitachi, Tokyo, Japan) equipped with a coverslip holder using two different excitation wavelengths: 396 and 510 nm with the emission measured at 580 nm as previously described. […]

NRK cells [2] = experiment: Nitrotyrosine immunocytochemistry during CS; assay type: cell-based, rat; conditions: 4 h CS, 1 μM
Experimental: (§1) Normal rat kidney proximal tubular cells (NRK-52E; American Type Culture Collection, Manassas, Va.) were maintained in six-well 100 or 150-mm, or 150-mm plates in a humidified incubator gassed with 5% CO2 and 95% air at 37° C. in DMEM (Invitrogen, Carlsbad, Calif.) containing 5% fetal calf serum (FCS). Cells were grown to 60% confluence and divided into four treatment groups: 1) untreated (Untx), 2) CS, 3) CS+MitoQ, and 4) CS+DecylTPP. Untreated cells remained at 37° C. in DMEM containing 5% FCS (group 1). CS was initiated by washing cells with cold PBS (Invitrogen) twice and storing them in UW/Viaspan solution alone (4 h at 4° C.) (group 2), CS+MitoQ (1 μM) (group 3), or CS+DecylTPP (1 μM) (group 4). In separate experiments, cells were exposed to CS plus RW by replacing UW solution alone or UW solution containing MitoQ or DecylTPP with DMEM containing 5% FCS overnight (18 h at 37° C.).
(§2) NRK cells (groups 1-4) were assessed for nitrotyrosine formation as previously described. […] Nitrotyrosine staining was evaluated and captured with equal exposure times using a Nikon Eclipse 800 microscope (40×oil). Images were quantified by averaging the mean intensity fluorescence of five random cells in three different fields using Nikon N is Elements software. Renal tissue sections were assessed for the presence of nitrotyrosine protein adducts by nitrotyrosine immunohistochemistry. […]

rat kidneys [3] = experiment: TUNEL staining of renal cell death during CS; conditions: 4 h CS, 100 μM
Experimental: All animals were treated according to the National Institutes of Health Guide for the Care and Use of Laboratory Animals and the University of Arkansas for Medical Sciences Institutional Animal Care and Use Committee guidelines. Male Fischer 344 inbred rats (Charles Rivers Laboratories, Inc., Wilmington, Mass.) weighing between 250 and 300 g were anesthetized with ethrane, followed by shaving and prepping with betadine. […] Bulldog clamps were placed on the aorta and vena cava (proximal and distal to the renal vessels) to prevent blood flow to the kidneys. A 22-gauge surgical needle was used to puncture the rat's aorta to flush the renal grafts with saline (10 ml per kidney) using a small catheter. Once the kidneys started to turn light brown (perfusion), another vent was formed in the vena cava to allow blood flow from the kidneys. […]
Cell cytotoxicity was determined using the LDH-Cytotoxicity Assay Kit II (Biovision Research Products, Mountain View, Calif.) according to the manufacturer's instructions. Absorbance was measured at 450 nm using a SpectraMax 190 microplate reader and SpectraMax software (Molecular Devices, Sunnyvale, Calif.). Renal cell death was determined using TUNEL staining. […] The amount of cell death was calculated by averaging the number of cells positive for TUNEL (brown staining) in 10 different fields (cortex and medulla) (20×). […]

[4] = tested on: mitochondrial respiratory complex I; experiment: Mitochondrial respiratory complex activity, NRK cell mitochondria after CS; assay type: cell-based, rat; conditions: NRK cells, 4-h CS, 1 μM
Experimental: as §1
(§3) NRK cell and rat kidney mitochondria were isolated by centrifugation on a sucrose density gradient. The activity of mitochondrial respiratory complexes I, II, III, or IV were assayed spectrophotometrically using 100 μg of mitochondrial protein at 30° C. as previously described.

[5] = tested on: mitochondrial respiratory complex II; experiment: as above; assay type: cell-based, rat; conditions: NRK cells, 4-h CS, 1 μM
Experimental: as §1, §3

[6] = tested on: mitochondrial respiratory complex I; experiment: Mitochondrial respiratory complex activity, rat kidney mitochondria after CS; conditions: rat kidneys, 4-h CS, 100 μM
Experimental: (§4) All animals were treated according to the National Institutes of Health Guide for the Care and Use of Laboratory Animals and the University of Arkansas for Medical Sciences Institutional Animal Care and Use Committee guidelines. Male Fischer 344 inbred rats (Charles Rivers Laboratories, Inc., Wilmington, Mass.) weighing between 250 and 300 g were anesthetized with ethrane, followed by shaving and prepping with betadine. […] Bulldog clamps were placed on the aorta and vena cava (proximal and distal to the renal vessels) to prevent blood flow to the kidneys. A 22-gauge surgical needle was used to puncture the rat's aorta to flush the renal grafts with saline (10 ml per kidney) using a small catheter. Once the kidneys started to turn light brown (perfusion), another vent was formed in the vena cava to allow blood flow from the kidneys. Once both kidneys were completely flushed, the right kidney was recovered and served as a control (group 1), and the left kidney was exposed to CS alone for 4 h at 4° C. (group 2). In additional experiments, kidneys were flushed with saline through the aorta using a small catheter followed by flushing the right kidney with saline containing MitoQ (100 μM) and the left kidney with saline containing DecylTPP (100 μM) (10 ml per kidney). Tissues were recovered and stored in CS+MitoQ (100 μM; right kidney) or CS+DecylTPP (100 μM; left kidney) for 4 h at 4° C. (groups 3 and 4, respectively). A thin middle section from all of the kidneys were cut and immediately fixed in 10% formalin before being embedded in paraffin for sectioning (4 μm) and histological evaluation. The remaining portion of the kidneys were quickly frozen in liquid nitrogen and stored in −80° C. until needed for biochemistry analyses.
as §3

[7] = tested on: mitochondrial respiratory complex II; experiment: as above; conditions: rat kidneys, 4-h CS, 100 μM
Experimental: as §4, §3

rat kidneys [8] = experiment: MitoSOX Red mitochondrial superoxide generation, cold storage ex vivo model; conditions: rat kidneys, 4 h CS at 4° C., 100 μM
Experimental: as §4, with “A thin middle section from all of the kidneys were cut and immediately fixed in 10% formalin before being embedded in paraffin for sectioning (4 μm) and histological evaluation. The remaining portion of the kidneys were quickly frozen in liquid nitrogen and stored in −80° C. until needed for biochemistry analyses.” left out
MitoSOX Red (Invitrogen) was used to measure mitochondrial superoxide generation during CS. […] Fluorescence was visualized using an Eclipse E800 microscope (Nikon, Melville, N.Y.) with a rhodamine filter using a water immersion objective (60×). Fluorescent images of NRK cells were captured with equal exposure times and quantified by averaging the mean intensity fluorescence of five random cells in three different fields using Nikon N is Elements software. In separate experiments, cells were grown on coverslips, preloaded with MitoSOX Red before treatment (groups 1-4), and evaluated for mitochondrial superoxide generation using a Hitachi F-2500 spectrofluorometer (Hitachi, Tokyo, Japan) equipped with a coverslip holder using two different excitation wavelengths: 396 and 510 nm with the emission measured at 580 nm as previously described. In addition, rat kidneys were monitored for mitochondrial superoxide generation by flushing kidneys with saline through the aorta using a small catheter as described under Cold Storage Ex Vivo Model, followed by saline containing MitoSOX Red (5 μM; 10 ml/kidney) before treatment (groups 1-4). Paraffin sections were analyzed using the rhodamine filter on the Nikon Eclipse 800 microscope (20×).

NRK cells [9] = experiment: Nitrotyrosine immunocytochemistry, CS plus rewarming; assay type: cell-based, rat; conditions: 4-h CS plus overnight (18 h) RW, 1 μM added during CS
Experimental: as §1, §2

rat kidneys [10] = experiment: Periodic acid-Schiff morphological assessment of renal injury during CS; conditions: 4 h CS, 100 μM
Experimental: All animals were treated according to the National Institutes of Health Guide for the Care and Use of Laboratory Animals and the University of Arkansas for Medical Sciences Institutional Animal Care and Use Committee guidelines. Male Fischer 344 inbred rats (Charles Rivers Laboratories, Inc., Wilmington, Mass.) weighing between 250 and 300 g were anesthetized with ethrane, followed by shaving and prepping with betadine. […] Bulldog clamps were placed on the aorta and vena cava (proximal and distal to the renal vessels) to prevent blood flow to the kidneys. A 22-gauge surgical needle was used to puncture the rat's aorta to flush the renal grafts with saline (10 ml per kidney) using a small catheter. Once the kidneys started to turn light brown (perfusion), another vent was formed in the vena cava to allow blood flow from the kidneys. Once both kidneys were completely flushed, the right kidney was recovered and served as a control (group 1), and the left kidney was exposed to CS alone for 4 h at 4° C. […]
Renal sections were assessed for tissue injury using the periodic acid-Schiff reaction. […] Morphological evaluation of tubular dilation, brush border loss, and cellular debris/tubular cast formation were performed blindly with light microscopy and assessed semiquantitatively according to the following scoring system: 0, no changes; 1, mild changes; 2, moderate changes, and 3, severe changes.

NRK cells [11] = experiment: LDH cytotoxicity assay, CS and CS plus rewarming; assay type: cell-based; conditions: 1 μM
Experimental: as §1
Cell cytotoxicity was determined using the LDH-Cytotoxicity Assay Kit II (Biovision Research Products, Mountain View, Calif.) according to the manufacturer's instructions. Absorbance was measured at 450 nm using a SpectraMax 190 microplate reader and SpectraMax software (Molecular Devices, Sunnyvale, Calif.). Renal cell death was determined using TUNEL staining. Kidney sections were deparaffinized, rehydrated, and exposed to antigen retrieval (20-min incubation at 95° C. with 10 mM sodium citrate buffer, pH 6.0) followed by washing with distilled water and quenching of endogenous peroxidase. Sections were immersed in TdT labeling buffer and then incubated in a humidified chamber with the labeling reaction mix from the TAGS 2 TdT-DAB In Situ Apoptosis Detection kit (Trevigen, Inc., Gaithersburg, Md.) for 1 h at room temperature. The reaction was stopped with TdT stop buffer, and slides were subsequently washed with PBS. Sections were incubated for 10 min with streptavidin-HRP followed by development with diaminobenzidine solution, counterstaining with Mayer's hematoxylin, dehydration, and mounting with Cytoseal-60. The amount of cell death was calculated by averaging the number of cells positive for TUNEL (brown staining) in 10 different fields (cortex and medulla) (20×). All images were taken at equal exposure times (40×oil).

NRK cells [12] = conditions: 24 h CS of NRK cells; cited from earlier work

| SMILES | CS-induced mitochondrial superoxide generation (MitoSOX Red) (NRK cells [1]) | effect on CS-mediated nitrotyrosine formation (NRK cells [2]) | protection against cell death (TUNEL) (rat kidneys [3]) | complex I inactivation [4] | complex II inactivation [5] | complex I inactivation [6] | complex II inactivation [7] | mitochondrial superoxide generation (MitoSOX Red) (rat kidneys [8]) | nitrotyrosine staining during CS.RW (NRK cells [9]) | renal histology / renal injury (periodic acid-Schiff staining) (rat kidneys [10]) | effect on cell death (LDH cytotoxicity) (NRK cells [11]; CS alone) | effect on cell death (LDH cytotoxicity) (NRK cells [11]; CS.RW) | nitrotyrosine staining (one marker of peroxynitrite) (NRK cells [12]) |
| --- | --- | --- | --- | --- | --- | --- | --- | --- | --- | --- | --- | --- | --- |
| CCCCCCCCCC[P+](c1ccccc1)(c1ccccc1)c1ccccc1.[Br-] [DecylTPP, decyltriphenylphosphonium bromide, reference compound] | did not offer any protection | did not decrease | no protective benefits | no significant effect | no significant effect | did not have any effect | did not have any effect | comparable levels of mitochondrial superoxide to kidneys exposed to CS alone | no effect | did not reverse renal injury | did not reduce | did not reduce |  |
| CNC(=N)NCCC[C@H](N)C(=O)O.O=C(O)CC(O)(CC(=O)O)C(=O)O [N^5-[imino(methylamino)methyl]-L-ornithine citrate] |  |  |  |  |  |  |  |  |  |  |  |  | inhibited |
